Reference: US8940865B2, “Myocardial peptide, preparation method and uses thereof” (Dalian Zhen-Ao Pharmaceutical Co, Ltd., priority 2008, dated 2015)

How the values were obtained:
[1] = system: primary culture myocardium cell damaged by hypoxia/reoxygenation; experiment: Anti-hypoxia/reoxygenation injury effect on primary culture myocardium cell (MTT); assay type: cell-based, Neonatal SD rat
Description: Take ventricle from Neonatal SD rat, wash with D-Hank's and cut to small pieces, digest with collagenase II to obtain the myocardium cell and fibroblast, which are cultivated with high glucose DMEM (dmem-h-15) culture medium containing 15% fetal bovine serum. Remove the fibroblast through differential adhesion and chemistry method, and inoculate myocardium cell on the 96-well plates.
2.1.3 Anti-Hypoxia/Reoxygenation Injury Effect of CMPC to Primary Culture Myocardium Cell.
Cell cultivation method is the same as that in 2.1.1
Preparation of model: Preparing the model by using the myocardium cell cultured for 48˜72 h, dividing the cell on the culture plate to following groups: Control Group, Model Group, Verapamil Group (2, 0.4, 0.08 mg/l final concentration) and CMPM Group (final concentration of 50, 10, 2, 0.4, 0.08, 0.016, 0.0032 mg/l), 3 wells for every group. Except the Control Group, the other groups are prepared by following method: placing the monolayer myocardium cell on center of culture plate on low glucose medium (containing Verapamil or CMPM with corresponding concentration), then placing the culture plate into the vacuum drying machine, filling nitrogen, and hermetically culturing, causing myocardial injury after oxygen lack for 15 hours, then being cultured for 1 hour by high glucose DMEM medium (95% atmosphere and 5% CO2) to cause reoxygention injury. Measuring the absorbance value at 540 nm by using MTT method, and the same as above, calculating the protective rate to figure out EC50.

[2] = system: ischemia/reperfusion damaged rat; experiment: Preventive administration, ischemia/reperfusion (LAD ligation) rat model; assay type: in vivo, SD rat; conditions: preventive i.v. 30 min before ligation; for MIS (myocardial infarct size): ischemic area weight/whole heart weight; for CK / LDH / MDA / SOD: rat serum
Protocol: 70 SD rats (250˜300 g per rat) were taken, wherein, 60 rats were divided into 6 groups evenly and randomly according to weight, every 10 of each group, the remains are kept for replacement of dead animals of each group.
Normal Control Group: carrying out sham operation, threading a silk suture through the left anterior descending coronary artery (LAD) without ligation;
Model Group: intravenous injecting saline solution of 5 ml/kg 30 minutes before ligation, and the preparation of hypoxia/reoxygenation model is the same as Normal Control Group;
Positive Control Group: intravenous injecting Verapamil of 1 ml/kg 30 min before ligation, preparation of the hypoxia/reoxygenation model is the same as Normal Control Group. […]
Preparation of the Model:
Intraperitoneal injecting 6% Urethane with 20 ml/kg to anaesthetize the animal, fixing the animal on operating table in supine position; being connected with the electrocardiograph to detect the limb II lead electrocardiogram, tracheal intubating and connecting the animal with respirators, taking continuous positive end-expiratory pressure with tidal volume of 6 ml/200 g, frequency of 55/min and breathing ratio of 2:1. Carrying out thoracotomy on the gap between the forth and the fifth ribs of the left border of sternum, separating the ribs and removing the pericardium. Ligating at the left anterior descending coronary artery by using 6/0 silk suture by the sign of left auricle lower margin, and setting a piece of polyethylene pipe with diameter of 1 mm between the ligation silk suture and blood vessel. Ligating the silk suture to press the left anterior descending coronary artery by the polyethylene pipe and cause myocardial ischemia. Taking part of myocardium becoming grey and electrocardiogram S-T segment raising as the sign of that the left anterior descending coronary artery is ligated successfully. Taking out the polyethylene pipe carefully to cause the reperfusion. Verifying the success of reoxygenation by reactive hyperemia of ischemia area and the descending of the raised S-T segment by ½. Reoxygenation for 30 minutes, then sampling blood from abdominal aorta to prepare serum which is used to measure the biochemical index (measuring the content of CK, LDH, MDA, SPD according to the Reagent kits Instruction).
Rat's heart was taken and after being blooded, the residual blood in the ventricle was cleaned by normal saline to weight the weight of whole heart. Fat was removed, the heart was crosscut into 4˜5 pieces and was put into a tube, to be carried out NBT dye at 37° C. (dying the normal tissue rather than the ischemic tissue), taking photographs. The ischemic area of the myocardium was cut to take a weighing, and then the myocardial infarct size (MIS) was calculated by the ratio of weight of the ischemic area of the myocardium to whole heart weight, which was present by percentage.

With “KGAWSNVLRGMGGAF [CMPC, Lys-Gly-Ala-Trp-Ser-Asn-Val-Leu-Arg-Gly-Met-Gly-Gly-Ala-Phe]” the “% (protective rate)” value ([1]; Plate 1, Dosage 0.0032 mg/L) was 4.11%, the A540 ([1]; Plate 1, Dosage 0.0032 mg/L) was 0.496 ± 0.031 and the “% (protective rate)” value ([1]; Plate 1, Dosage 0.016 mg/L) was 14.69%. For the same sequence, the A540 ([1]; Plate 1, Dosage 0.016 mg/L) was 0.526 ± 0.032, the “% (protective rate)” value ([1]; Plate 1, Dosage 0.08 mg/L) was 26.09% and the A540 ([1]; Plate 1, Dosage 0.08 mg/L) was 0.558 ± 0.025. For the same sequence, the “% (protective rate)” value ([1]; Plate 1, Dosage 0.4 mg/L) was 38.95%, the A540 ([1]; Plate 1, Dosage 0.4 mg/L) was 0.594 ± 0.043 and the “% (protective rate)” value ([1]; Plate 1, Dosage 2 mg/L) was 28.91%. The A540 ([1]; Plate 1, Dosage 2 mg/L) was 0.566 ± 0.057, the “% (protective rate)” value ([1]; Plate 1, Dosage 10 mg/L) was 17.74% and the A540 ([1]; Plate 1, Dosage 10 mg/L) was 0.534 ± 0.033. For the same sequence, the “% (protective rate)” value ([1]; Plate 1, Dosage 50 mg/L) was 9.05%, the A540 ([1]; Plate 1, Dosage 50 mg/L) was 0.510 ± 0.030 and the “% (protective rate)” value ([1]; Plate 2, Dosage 0.0032 mg/L) was 20.37%. The A540 ([1]; Plate 2, Dosage 0.0032 mg/L) was 0.543 ± 0.052, the “% (protective rate)” value ([1]; Plate 2, Dosage 0.016 mg/L) was 22.85% and the A540 ([1]; Plate 2, Dosage 0.016 mg/L) was 0.550 ± 0.024. The “% (protective rate)” value ([1]; Plate 2, Dosage 0.08 mg/L) was 48.52%, the A540 ([1]; Plate 2, Dosage 0.08 mg/L) was 0.622 ± 0.047 and the “% (protective rate)” value ([1]; Plate 2, Dosage 0.4 mg/L) was 40.20%. For the same sequence, the A540 ([1]; Plate 2, Dosage 0.4 mg/L) was 0.599 ± 0.032, the “% (protective rate)” value ([1]; Plate 2, Dosage 2 mg/L) was 30.99% and the A540 ([1]; Plate 2, Dosage 2 mg/L) was 0.573 ± 0.052. The “% (protective rate)” value ([1]; Plate 2, Dosage 10 mg/L) was 19.36%, the A540 ([1]; Plate 2, Dosage 10 mg/L) was 0.540 ± 0.026 and the “% (protective rate)” value ([1]; Plate 2, Dosage 50 mg/L) was 18.12%. The A540 ([1]; Plate 2, Dosage 50 mg/L) was 0.536 ± 0.036, the “% (protective rate)” value ([1]; Plate 3, Dosage 0.0032 mg/L) was 15.86% and the A540 ([1]; Plate 3, Dosage 0.0032 mg/L) was 0.763 ± 0.018. The “% (protective rate)” value ([1]; Plate 3, Dosage 0.016 mg/L) was 24.20%, the A540 ([1]; Plate 3, Dosage 0.016 mg/L) was 0.777 ± 0.014 and the “% (protective rate)” value ([1]; Plate 3, Dosage 0.08 mg/L) was 38.05%. The A540 ([1]; Plate 3, Dosage 0.08 mg/L) was 0.800 ± 0.020, the “% (protective rate)” value ([1]; Plate 3, Dosage 0.4 mg/L) was 47.29% and the A540 ([1]; Plate 3, Dosage 0.4 mg/L) was 0.815 ± 0.014. For the same sequence, the “% (protective rate)” value ([1]; Plate 3, Dosage 2 mg/L) was 64.26%, the A540 ([1]; Plate 3, Dosage 2 mg/L) was 0.843 ± 0.032 and the “% (protective rate)” value ([1]; Plate 3, Dosage 10 mg/L) was 34.43%. The A540 ([1]; Plate 3, Dosage 10 mg/L) was 0.790 ± 0.023, the “% (protective rate)” value ([1]; Plate 3, Dosage 50 mg/L) was 14.96% and the A540 ([1]; Plate 3, Dosage 50 mg/L) was 0.761 ± 0.019. The “MIS (myocardial infarct size)” value ([2]; Dosage 0.2 mg/kg) was 4.67 ± 0.74 %, the “MIS (myocardial infarct size)” value ([2]; Dosage 0.6 mg/kg) was 4.17 ± 0.62 % and the “MIS (myocardial infarct size)” value ([2]; Dosage 1.8 mg/kg) was 3.47 ± 1.08 %. The CK ([2]; Dosage 0.2 mg/kg) was 2.238 ± 0.274 U/ml, the LDH ([2]; Dosage 0.2 mg/kg) was 7555.34 ± 600.16 U/L and the MDA ([2]; Dosage 0.2 mg/kg) was 4.642 ± 0.978 nmol/mL. For the same sequence, the SOD ([2]; Dosage 0.2 mg/kg) was 134.85 ± 12.55 U/ml, the CK ([2]; Dosage 0.6 mg/kg) was 2.172 ± 0.329 U/ml and the LDH ([2]; Dosage 0.6 mg/kg) was 7531.58 ± 414.64 U/L. It also gave an MDA ([2]; Dosage 0.6 mg/kg) of 4.847 ± 0.570 nmol/mL, an SOD ([2]; Dosage 0.6 mg/kg) of 130.43 ± 10.55 U/ml and a CK ([2]; Dosage 1.8 mg/kg) of 2.045 ± 0.358 U/ml. The LDH ([2]; Dosage 1.8 mg/kg) was 7453.80 ± 366.11 U/L, the MDA ([2]; Dosage 1.8 mg/kg) was 4.371 ± 0.47 nmol/mL and the SOD ([2]; Dosage 1.8 mg/kg) was 135.67 ± 8.64 U/ml.
